Where a SMILES comes first, the peptide text is derived from it.
Tests used:
[1] = Evaluation of toxicity in vivo; parameters: species or system mice; conditions: 10 days intraperitoneal, 1 mg/mouse/day, N=10/group
TGF-β in hepatocytes = assay: TGF-β mRNA and protein in cultured hepatocytes; format: cell-based, murine; conditions: hepatocytes on vitronectin, 24 hours
Huh-7 hepatoma cell line = assay: TGF-β protein in Huh-7 cells; format: cell-based; conditions: cultured on vitronectin, 50μg/mL, 24 hours
hepatocytes = format: cell-based, murine; conditions: 50μg/mL, 24 hours, flow cytometry
pFAK in hepatocytes = pFAK in hepatocytes by western blotting; format: cell-based, murine; conditions: suspension without FCS 2 hours, 50μg/mL for 30 minutes
[2] = GLQGE detection in plasma after injection; format: in vivo, mice; conditions: for time to enter the circulation / time until cleared from the bloodstream: LC-MS/MS; for Tmax: mouse

| Compound | blood values of kidney function [1] | blood values of liver function [1] | blood values of pancreas function [1] | complete blood count [1] | TGF-β mRNA in cultured hepatocytes compared to GLOGE (TGF-β in hepatocytes; 50μg/mL, qPCR) | TGF-β protein in Huh-7 (Huh-7 hepatoma cell line) | TGF-β mRNA expression in wildtype hepatocytes after FAK inhibition (TGF-β in hepatocytes; 5μM) | hepatocyte apoptosis (annexinv-propidium-iodide staining) (hepatocytes) | hepatocyte proliferation (ki67 staining) (hepatocytes) | pFAK in hepatocytes from β3 global knockout mice (pFAK in hepatocytes) | pFAK in hepatocytes (pFAK in hepatocytes; western blotting) | time to enter the circulation ([2]; i.p. injection of 0.5 mg GLQGE) | time until cleared from the bloodstream ([2]; i.p. injection of 0.5 mg GLQGE) | Tmax ([2]; ip, 0.5 mg/mouse) | Tmax ([2]; sc, 1 mg/mouse) | time to enter the circulation ([2]; s.c. injection of 1 mg GLQGE) | time until cleared from the bloodstream ([2]; s.c. injection of 1 mg GLQGE) | total TGF-β protein in hepatocytes (TGF-β in hepatocytes; 50μg/mL, MLEC bioassay) | TGF-β mRNA expression in cultured hepatocytes compared to untreated control (TGF-β in hepatocytes; 50μg/mL, qPCR) |
| --- | --- | --- | --- | --- | --- | --- | --- | --- | --- | --- | --- | --- | --- | --- | --- | --- | --- | --- | --- |
| GLNGE (head to tail) | no significant abnormalities | no significant abnormalities | no significant abnormalities | no significant abnormalities | diminished | reduced |  |  |  |  |  |  |  |  |  |  |  |  |  |
| CS(=O)(=O)c1cccc(CNc2nc(Nc3ccc4c(c3)CCC(=O)N4)ncc2C(F)(F)F)c1 [PF573228, reference compound] |  |  |  |  |  |  | rise |  |  |  |  |  |  |  |  |  |  |  |  |
| CC(C)C[C@@H]1NC(=O)CNC(=O)[C@H](CCC(=O)O)NC(=O)CNC(=O)[C@H](CCC(N)=O)NC1=O [GLQGE] (cyclo(EGLQG)) | no significant abnormalities | no significant abnormalities | no significant abnormalities | no significant abnormalities |  |  |  | did not affect | did not affect | increase | increased | ≤ 5 min | ≤ 120 min | 15 min | 15 min | ≤ 5 min | ≤ 120 min | suppressed | diminished |
| GLOGE (head to tail) | no significant abnormalities | no significant abnormalities | no significant abnormalities | no significant abnormalities |  |  |  |  |  |  |  |  |  |  |  |  |  |  |  |

From paper doi:10.1101/2025.05.14.653428v1 (bioRxiv, 2025)
